Experiment: RP, Thermo Scientific Acclaim RSLC 120 C18, 100 × 2.1 mm, 2.2 µm, 30 °C, 0.2 mL/min, estimated dead time 1.1 min; A: 90% water + 10% methanol + 0.01% formic acid + 5 mM ammonium formate, pH 3.61; B: methanol + 0.01% formic acid + 5 mM ammonium formate, pH 3.61; gradient (min/%B) 0/1 1/1 2/39 13/99.9 15/99.9 15.1/1 20.1/1
Conditions: stereoisomer not certain

Row | SMILES | LC retention time [min]
1 | CC(C)C(NC(=O)c1nn(CCCCCCl)c2ccccc12)C(N)=O (configuration not stated) [AB-PINACA 5Cl] | 9.99
2 | COc1ccc2c3c1OC1C(O)C=CC4C(C2)NCCC341 (configuration not stated) [Codeine-Nor] | 3.5
3 | CCCCn1c(O)c(C(=O)c2cccc3ccccc23)c2ccccc21 [JWH-073-M-2-OH-Ind] | 13.5
4 | COc1cc(CCN)c(OC)cc1I [2C-I] | 6.06
5 | O=C1CN=C(c2ccccc2F)c2cc(Cl)ccc2N1CCO [Flurazepam-2-OH-Ethyl] | 8.19
6 | COc1ccc(OC)c(CCN)c1 [2C-H] | 4.43
7 | O=C(CC1NCCCC1O)Cn1cnc2cc(Br)c(Cl)cc2c1=O (configuration not stated) [Halofuginone] | 6.76
8 | CCCCCn1c(O)c(C(=O)c2cccc3ccccc23)c2ccccc21 [JWH-018-M-2-OH-Ind] | 14
9 | CS(=O)(=O)c1ccc(C(=O)C2C(=O)CCCC2=O)c(Cl)c1 [Sulcotrione] | 5
10 | CNC(C)C(=O)c1ccc(C)cc1 (configuration not stated) [Mephedrone] | 4.49
11 | Nc1cnn(-c2ccccc2)c(=O)c1Cl [Chloridazone] | 5.34
12 | COc1cc2[nH]c(C)c(CCN3CCN(c4ccccc4)CC3)c2cc1OC [Oxypertine] | 5.76
13 | CCc1ccc(C(=O)NN(C(=O)c2cc(C)cc(C)c2)C(C)(C)C)cc1 [Tebufenozide] | 10.4
14 | COP(=S)(Oc1cc(Cl)c(Br)cc1Cl)c1ccccc1 (configuration not stated) [Leptophos] | 13.8
15 | CN1C(=O)CCS(=O)(=O)C1c1ccc(Cl)cc1 (configuration not stated) [Chlormezanone] | 5.94
16 | CC(=O)Nc1ccc(O)c(C(=O)O)c1 [N-Acetyl mesalazine] | 3.43
17 | CCC=CCC1=C(C)C(OC(=O)C2C(C=C(C)C)C2(C)C)CC1=O (configuration not stated) [Pyrethrins: Jasmolin I] | 13.3
18 | CCCCCCCCOC(=O)c1ccccc1C(=O)OCCCCCCCC [Phthalate-Di-n-octyl] | 15.3
19 | CCCSc1cc(OC)c(CCN)cc1OC [2C-T-7] | 6.98
20 | CNC(=N[N+](=O)[O-])NCC1CCOC1 (configuration not stated) [Dinotefuran] | 3.59
21 | N#CCNC(=O)c1cnccc1C(F)(F)F [Flonicamid] | 4.22
22 | COC(=O)C(NC(=O)c1nn(CCCCCF)c2ccccc12)C(C)C (configuration not stated) [AMB-5F] | 10.5
23 | CCCCOC(=O)c1ccccc1C(=O)OCc1ccccc1 [Phthalate-Benzyl butyl] | 12.4
24 | O=C1CN=C(c2ccccc2)c2c(sc3c2CCCC3)N1 [Bentazepam] | 9.49
25 | CCC1CN2CCC3(O)C(=Nc4cccc(OC)c43)C2CC1C(=COC)C(=O)OC (configuration not stated) [Mitragynine-7-Hydroxy] | 5.95
26 | CCN(Cc1ccc(Cl)nc1)C(=C[N+](=O)[O-])NC [Nitenpyram] | 3.9
27 | CCCCC(C#N)(Cn1cncn1)c1ccc(Cl)cc1 (configuration not stated) [Myclobutanil] | 9.74
28 | CCc1cc2c(s1)-n1c(C)nnc1CN=C2c1ccccc1Cl [Etizolam] | 8.31
29 | O=C1N(CCN2CCCCC2)C(=O)C(c2ccccc2)(N2CCCCC2)C(=O)N1CCN1CCCCC1 [Barverin] | 7.64
30 | COC=C(C(=O)OC)c1ccccc1Oc1cc(Oc2ccccc2C#N)ncn1 [Azoxystrobin] | 9.02

Next, values leading:

Row | LC retention time [min] | SMILES
31 | 5.83 | CN(C)CCCC1(c2ccc(F)cc2)OCc2cc(C(=O)O)ccc21 (configuration not stated) [Citalopram carboxylic acid]
32 | 5.09 | CN1C2CCC1CC(OC(=O)c1c[nH]c3ccccc13)C2 (configuration not stated) [Tropisetron]
33 | 10.9 | CC(C)(C)c1ccc(C(=O)CCCN2CCC(OC(c3ccccc3)c3ccccc3)CC2)cc1 [Ebastine]
34 | 6.94 | O=C(c1ccccc1)c1ccc2n1CCC2C(=O)O (configuration not stated) [Ketorolac]
35 | 9.49 | CCCOc1ccc(S(=O)(=O)N2CCN(CCO)CC2)cc1-c1nc2c(CCC)cn(CC)c2c(=O)[nH]1 [Mirodenafil]
36 | 5.83 | Cc1cccc2n[nH]nc12 [Benzotriazole -4-Me]
37 | 4.44 | COc1nccnc1NS(=O)(=O)c1ccc(N)cc1 [Sulfalene]
38 | 9.34 | COC(=O)C1Cc2c([nH]c3ccccc23)C(c2ccc3c(c2)OCO3)N1C(=O)CCl (configuration not stated) [Chloropretadalafil]
39 | 6.96 | COc1ccc(CCNCCCC(C#N)(c2ccc(OC)c(OC)c2)C(C)C)cc1OC (configuration not stated) [Verapamil-Nor]
40 | 13.2 | Cc1nn(C)c(Oc2ccccc2)c1C=NOCc1ccc(C(=O)OC(C)(C)C)cc1 [Fenpyroximate]
41 | 9.12 | Nc1nc2ccc(OC(F)(F)F)cc2s1 [Riluzole]
42 | 7.23 | Cc1c(C(C)C)c(=O)n(-c2ccccc2)n1C [Propyphenazone]
43 | 12 | CCCCOC(=O)C(C)Oc1ccc(Oc2ccc(C(F)(F)F)cn2)cc1 (configuration not stated) [Fluazifop-p-butyl]
44 | 9.27 | C#CC(C)OC(=O)Nc1cccc(Cl)c1 (configuration not stated) [Chlorbufam]
45 | 8.12 | Cc1ccc(C2(c3ccccc3)NC(=O)NC2=O)cc1 (configuration not stated) [MPPH (5-(p-Methylphenyl)-5-phenylhydantoin)]
46 | 10.6 | CCOC(=O)NCCOc1ccc(Oc2ccccc2)cc1 [Fenoxycarb]

Row | LC retention time [min] | SMILES
47 | 10.1 | C1=Cc2ccccc2Nc2ccccc21 [Iminostilbene]
48 | 7.36 | Cc1cccc(C)c1NC(=O)c1cc(S(N)(=O)=O)c(Cl)cc1O [Xipamide]
49 | 9.32 | O=C(C1CCCCC1)N1CC(=O)N2CCc3ccccc3C2C1 (configuration not stated) [Praziquantel]
50 | 15 | CCCCCCCCCCCCCCCCCC[N+](C)(C)CCCCCCCCCCCCCCCCCC [Dimethyldioctadecylammonium]
51 | 11.5 | CCCc1nn(C)c2c(=O)[nH]c(-c3cc(S(=O)(=O)N4CCN(Cc5ccccc5)CC4)ccc3OCC)nc12 [Sildenafil-Benzyl]
52 | 9.39 | N[C@@H](Cc1cc(I)c(Oc2cc(I)c(O)c(I)c2)c(I)c1)C(=O)O [L-Thyroxine]
53 | 11.8 | COC(=O)C(c1ccccc1Cl)N1CCc2sccc2C1 (configuration not stated) [Clopidogrel]
54 | 4.79 | COc1ccc(CC(C)NCC(O)c2ccc(O)c(NC=O)c2)cc1 (configuration not stated) [Formoterol]
55 | 5.66 | O=C(O)c1cc(N=Nc2ccc(O)c(C(=O)O)c2)ccc1O [Olsalazine]
56 | 5.94 | CCCCOc1cc(C(=O)OCCN(CC)CC)ccc1N [Oxybuprocaine]
57 | 7.66 | CC(C)OC(=O)Nc1ccc2nc(-c3cscn3)[nH]c2c1 [Cambendazol]
58 | 7.34 | CCc1cccc(C)c1N(C(=O)CS(=O)(=O)O)C(C)COC (configuration not stated) [Metolachlor-ESA]
59 | 12.3 | O=C(Nc1ccc(F)cc1)c1cccc(Oc2cccc(C(F)(F)F)c2)n1 [Picolinafen]
60 | 8.54 | CCN(CC)CCCOC(=O)C1(c2ccccc2)CC2CCC1C2 (configuration not stated) [Bornaprine]
61 | 4.6 | Cc1cc(NS(=O)(=O)c2ccc(N)cc2)no1 [Sulfamethoxazole]
62 | 5.21 | CC1CCN(CCCC(=O)c2ccc(F)cc2)CC1 [Melperone]

— the RepoRT retention time repository (doi:10.1021/acs.analchem.2c02893)
